Where a name gives a salt, the structure may show the parent alone.

This is an account of results in patent publication US5712297A, “Piperdine compounds and their preparation and use” (Novo Nordisk A/S, priority 1989, dated 1998).

The target in this experiment is muscarinic acetylcholine receptors. The experiment is described as follows: Inhibition of specific binding of 3H-Oxotremorine-M (3H-Oxo). The arrangement: species or system rat (male Wistar. As to conditions: rat cortex; 3H-Oxotremorine 1.0 nM; 20 mM Hepes pH 7.4; 30 min at 25° C. The method, then: The pharmacological properties of the compounds of the present invention (Formula I) can be illustrated by determining their capability to inhibit the specific binding of ^3 H-Oxotremorine-M (^3 H-Oxo).
^3 H-Oxo labels muscarinic receptors in the CNS (with a preference for agonist domaines of the receptors). Three different sites are labelled by 3H-Oxo. These sites have affinity of 1.0, 20 and 3000 nM, respectively. Using the present experimental conditions only the high and medium affinity sites are determined. The inhibitory effects of compounds on ^3 H-Oxo binding reflects the affinity for muscarinic acetylcholine receptors.
All preparations are performed at 0°-4° C. unless otherwise indicated. Fresh cortex (0.1-1 g) from male Wistar rats (150-250 g) is homogenized for 5-10 s in 10 ml 20 mM Hepes pH: 7.4, with an Ultra-Turrax homogenizer. The homogenizer is rinsed with 10 ml of buffer and the combined suspension centrifuged for 15 min at 40,000×g. The pellet is washed three times with buffer. In each step the pellet is homogenized as before in 2×10 ml of buffer and centrifuged for 10 min at 40,000×g. The final pellet is homogenized in 20 mM Hepes pH: 7.4 (100 ml per g of original tissue) and used for binding assay. Aliquots of 0.5 ml is added 25 μl of test solution and 25 μl of ^3 H-Oxotremorine (1.0 nM, final concentration) mixed and incubated for 30 min at 25° C. Non-specific binding is determined in triplicate using Arecoline (1 μg/ml, final concentration) as the test substance. After incubation samples are added 5 ml of ice-cold buffer and poured directly onto Whatman GF/C glass fiber filters under suction and immediately washed 2 times with 5 ml of ice-cold buffer. The amount of radioactivity on the filters are determined by conventional liquid scintillation counting. Specific binding is total binding minus non-specific binding. Test substances are dissolved in 10 ml water (if necessary heated on a steam-bath for less than 5 minutes) at a concentration of 2.2 mg/ml. 25-75% inhibition of specific binding must be obtained before calculation of IC50.
The test value will be given as IC50 (the concentration (ng/ml) of the test substance which inhibits the specific binding of ^3 H-Oxo by 50%). [formula] where Co is specific binding in control assays and Cx is the specific binding in the test assay. (The calculations assume normal mass-action kinetics).

On to `C=CCOc1nsnc1C1=CCCN(C)C1.O=C(O)C(=O)O` [Compound 24, 3-(4-(2-propenyloxy)-1,2,5-thiadiazol-3-yl)-1,2,5,6-tetrahydro-1-methylpyridine oxalate], for which the “Inhibition in vitro OXO BINDING (IC50: concentration which inhibits the specific binding of 3H-Oxo by 50%)” value worked out at 0.4 ng/mL.
As for `CC(C)Cc1nsnc1C1=CCCN(C)C1` [Compound 61, 3-(4-isobutyl-1,2,5-thiadiazol-3-yl)-1,2,5,6-tetrahydro-1-methylpyridinium oxalate], the figure is 50 ng/mL.
Next, `COCCOc1nsnc1C1=CCCN(C)C1.O=C(O)C(=O)O` [Compound 15, 1,2,5,6-tetrahydro-3-(4-methoxyethoxy-1,2,5-thiadiazol-3-yl)-1-methylpyridine oxalate]: 0.6 ng/mL; `CCCCOc1nonc1C1=CCCN(C)C1.O=C(O)C(=O)O` [Compound 55, 3-(4-butyloxy-1,2,5-oxadiazol-3-yl)-1,2,5,6-tetrahydro-1-methylpyridine oxalate]: 8 ng/mL.
For `CCCCOc1nsnc1C1=CCCNC1.O=C(O)C(=O)O` [Compound 18, 3-(4-butoxy-1,2,5-thiadiazol-3-yl)-1,2,5,6-tetrahydropyridine oxalate], the “Inhibition in vitro OXO BINDING (IC50: concentration which inhibits the specific binding of 3H-Oxo by 50%)” value came out at 3.6 ng/mL.
Take `CCCCCCCCSc1nsnc1C1=CCCN(C)C1.O=C(O)C(=O)O` [Compound 64, 3-(4-octylthio-1,2,5-thiadiazol-3-yl)-1,2,5,6-tetrahydro-1-methylpyridine oxalate]: the “Inhibition in vitro OXO BINDING (IC50: concentration which inhibits the specific binding of 3H-Oxo by 50%)” value is 58 ng/mL.
Next, `CCCCCCCOc1nsnc1C1=CCCN(C)C1.O=C(O)C(=O)O` [Compound 21, 3-(4-heptyloxy-1,2,5-thiadiazol-3-yl)-1,2,5,6-tetrahydro-1-methylpyridine oxalate]: 2.4 ng/mL.
Turning to `C#CCOc1nsnc1C1=CCCN(C)C1.O=C(O)C(=O)O` [Compound 13, 1,2,5,6-tetrahydro-1-methyl-3-(4-propargyloxy-1,2,5-thiadiazol-3-yl)pyridine oxalate], the “Inhibition in vitro OXO BINDING (IC50: concentration which inhibits the specific binding of 3H-Oxo by 50%)” value came out at 0.3 ng/mL.
Turning to `CC1CCN(c2nsnc2C2=CCCN(C)C2)CC1.O=C(O)C(=O)O` [Compound 44, 3-(4-(4-methylpiperidino)-1,2,5-thiadiazol-3-yl)-1,2,5,6-tetrahydro-1-methylpyridine oxalate], the “Inhibition in vitro OXO BINDING (IC50: concentration which inhibits the specific binding of 3H-Oxo by 50%)” value came out at 14 ng/mL.
In the case of `CC(C)Oc1nsnc1C1=CCCN(C)C1` [Compound 5, 1,2,5,6-tetrahydro-3-(4-isopropoxy-1,2,5-thiadiazol-3-yl)-1-methylpyridineoxalate], the “Inhibition in vitro OXO BINDING (IC50: concentration which inhibits the specific binding of 3H-Oxo by 50%)” value was determined as 3.5 ng/mL.
Turning to `CCOc1nsnc1C1=CCCN(CC)C1.O=C(O)C(=O)O` [Compound 20, 3-(4-ethoxy-1,2,5-thiadiazol-3-yl)-1-ethyl-1,2,5,6-tetrahydropyridine oxalate], the “Inhibition in vitro OXO BINDING (IC50: concentration which inhibits the specific binding of 3H-Oxo by 50%)” value came out at 5.9 ng/mL.
On to `CCCCCCCCc1nsnc1C1=CCCN(C)C1` [Compound 60, 3-(4-octyl-1,2,5-thiadiazol-3-yl)-1,2,5,6-tetrahydro-1-methylpyridinium oxalate], for which the “Inhibition in vitro OXO BINDING (IC50: concentration which inhibits the specific binding of 3H-Oxo by 50%)” value turned out to be 164 ng/mL.
On to `CCCSc1nsnc1C1=CCCN(C)C1` [Compound 47, 3-(4-propylthio-1,2,5-thiadiazol-3-yl)-1,2,5,6-tetrahydro-1-methylpyridineoxalate], for which the “Inhibition in vitro OXO BINDING (IC50: concentration which inhibits the specific binding of 3H-Oxo by 50%)” value was found to be 0.3 ng/mL.
On to `CN1CCC=C(c2nsnc2OCc2ccccc2)C1.O=C(O)C(=O)O` [Compound 10, 3-(4-benzyloxy-1,2,5-thiadiazol-3-yl)-1,2,5,6-tetrahydro-1-methylpyridine oxalate], for which the “Inhibition in vitro OXO BINDING (IC50: concentration which inhibits the specific binding of 3H-Oxo by 50%)” value stood at 2.3 ng/mL.
Next, `CCCCCCSc1nsnc1C1=CCCN(C)C1.O=C(O)C(=O)O` [Compound 67, 3-(4-hexylthio-1,2,5-thiadiazol-3-yl)-1,2,5,6-tetrahydro-1-methylpyridine oxalate]: 1.6 ng/mL; `CCCCOc1nsnc1C1=CCCN(C)C1.O=C(O)C(=O)O` [Compound 4, 3-(4-butoxy-1,2,5-thiadiazol-3-yl)-1,2,5,6-tetrahydro-1-methylpyridine oxalate]: 0.5 ng/mL.
With `CCOCCOCCOc1nsnc1C1=CCCN(C)C1.O=C(O)C(=O)O` [Compound 43, 3-(4-(2-(2-ethoxyethoxy)ethoxy)-1,2,5-thiadiazol-3-yl)-1,2,5,6-tetrahydro-1-methylpyridine oxalate], the “Inhibition in vitro OXO BINDING (IC50: concentration which inhibits the specific binding of 3H-Oxo by 50%)” value is 4.0 ng/mL.
Regarding `CC/C=C\COc1nsnc1C1=CCCN(C)C1.O=C(O)C(=O)O` [Compound 31, cis-3-(4-(2-pentenyloxy)-1,2,5-thiadiazol-3-yl)-1,2,5,6-tetrahydro-1-methylpyridine oxalate], the “Inhibition in vitro OXO BINDING (IC50: concentration which inhibits the specific binding of 3H-Oxo by 50%)” value was found to be 0.7 ng/mL.
In the case of `CC#CCCOc1nsnc1C1=CCCN(C)C1.O=C(O)C(=O)O` [Compound 22, 3-(4-(3-pentynyloxy)-1,2,5-thiadiazol-3-yl)-1,2,5,6-tetrahydro-1-methylpyridine oxalate], the “Inhibition in vitro OXO BINDING (IC50: concentration which inhibits the specific binding of 3H-Oxo by 50%)” value turned out to be 0.4 ng/mL.
For `CCCCCCCCOc1nsnc1C1=CCCN(C)C1` [Compound 25, 3-(4-octyloxy-1,2,5-thiadiazol-3-yl)-1,2,5,6-tetrahydro-1-methylpyridineoxalate], the “Inhibition in vitro OXO BINDING (IC50: concentration which inhibits the specific binding of 3H-Oxo by 50%)” value was determined as 12 ng/mL.
As to `CCCCCCOc1nsnc1C1=CCCNC1.O=C(O)C(=O)O` [Compound 37, 1,2,5,6-tetrahydro-3-(4-hexyloxy-1,2,5-thiadiazol-3-yl) pyridine oxalate], the “Inhibition in vitro OXO BINDING (IC50: concentration which inhibits the specific binding of 3H-Oxo by 50%)” value was 6.3 ng/mL.
As to `CCC#CCCOc1nonc1C1=CCCN(C)C1.O=C(O)C(=O)O` [Compound 56, 3-(4-(3-hexynyloxy)-1,2,5-oxadiazol-3-yl)-1,2,5,6-tetrahydro-1-methylpyridine oxalate], the “Inhibition in vitro OXO BINDING (IC50: concentration which inhibits the specific binding of 3H-Oxo by 50%)” value was 2.1 ng/mL.
With `CCCCOCCOCCOc1nsnc1C1=CCCN(C)C1.O=C(O)C(=O)O` [Compound 42, 3-(4-(2-(2-butoxyethoxy)ethoxy)-1,2,5-thiadiazol-3-yl)-1,2,5,6-tetrahydro-1-methylpyridine oxalate], the “Inhibition in vitro OXO BINDING (IC50: concentration which inhibits the specific binding of 3H-Oxo by 50%)” value was determined as 7.0 ng/mL.
With `CCCCCOc1nsnc1C1=CCCN(C)C1.O=C(O)C(=O)O` [Compound 6, 1,2,5,6-tetrahydro-1-methyl-3-(4-pentyloxy-1,2,5-thiadiazol-3-yl)pyridine oxalate], the “Inhibition in vitro OXO BINDING (IC50: concentration which inhibits the specific binding of 3H-Oxo by 50%)” value stood at 1.9 ng/mL.
As for `CC(=O)Nc1nonc1C1=CCCN(C)C1` [Compound 51, 3-(4-acetylamino-1,2,5-oxadiazol-3-yl)-1,2,5,6-tetrahydro-1-methylpyridineoxalate], the “Inhibition in vitro OXO BINDING (IC50: concentration which inhibits the specific binding of 3H-Oxo by 50%)” value turned out to be 300 ng/mL.
In the case of `CC/C=C/CCOc1nsnc1C1=CCCN(C)C1.O=C(O)C(=O)O` [Compound 30, trans-3-(4-(3-hexenyloxy)-1,2,5-thiadiazol-3-yl)-1,2,5,6-tetrahydro-1-methylpyridine oxalate], the “Inhibition in vitro OXO BINDING (IC50: concentration which inhibits the specific binding of 3H-Oxo by 50%)” value was 0.4 ng/mL.
With `CN1CCC=C(c2nonc2N)C1.O=C(O)C(=O)O` [Compound 50, 3-(4-amino-1,2,5-oxadiazol-3-yl)-1,2,5,6-tetrahydro-1-methylpyridine oxalate], the “Inhibition in vitro OXO BINDING (IC50: concentration which inhibits the specific binding of 3H-Oxo by 50%)” value is 300 ng/mL.
As to `CCOc1nsnc1C1=CCCN(C)C1.O=C(O)C(=O)O` [Compound 2, 3-(4-ethoxy-1,2,5-thiadiazol-3-yl)-1,2,5,6-tetrahydro-1-methylpyridine oxalate], the “Inhibition in vitro OXO BINDING (IC50: concentration which inhibits the specific binding of 3H-Oxo by 50%)” value is 0.4 ng/mL.
On to `CCSc1nsnc1C1=CCCN(C)C1.O=C(O)C(=O)O` [Compound 65, 3-(4-ethylthio-1,2,5-thiadiazol-3-yl)-1,2,5,6-tetrahydro-1-methylpyridine oxalate], for which the “Inhibition in vitro OXO BINDING (IC50: concentration which inhibits the specific binding of 3H-Oxo by 50%)” value was 0.6 ng/mL.
Consider `CC(C)CCOc1nsnc1C1=CCCN(C)C1.O=C(O)C(=O)O` [Compound 8, 1,2,5,6-tetrahydro-3-(4-isopentyloxy-1,2,5-thiadiazol-3-yl)-1-methylpyridine oxalate], for which the “Inhibition in vitro OXO BINDING (IC50: concentration which inhibits the specific binding of 3H-Oxo by 50%)” value is 1.9 ng/mL.
